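Values below derive from 48-hour exposures of cells grown in 96-well plates, with endpoints linearly interpolated between the two concentrations bracketing the appropriate inhibition level. Abbreviation: GI50, concentration required for 50% inhibition of growth. TGI denotes the concentration required for complete inhibition of growth.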
How the values were obtained:
Experiment in all cases: growth of human tumour cells (NCI), 48 h
NCI-H460 lung = system: NCI-H460 lung
SNB-78 CNS = system: SNB-78 CNS
M19-MEL melanoma = system: M19-MEL melanoma
DU-145 prostate = system: DU-145 prostate
KM12 colon = system: KM12 colon
HOP-92 NSCLC = system: HOP-92 NSCLC
OVCAR-3 ovarian = system: OVCAR-3 ovarian
MDA-MB-435 = system: MDA-MB-435
XF 498 CNS = system: XF 498 CNS
OVCAR-4 ovarian = system: OVCAR-4 ovarian

How did the TGI (NCI-H460 lung) turn out when Cc1ccc(NCCN(C)C)c2c(=O)c3cc(O)ccc3sc12 was run?
The TGI was 5.72 µM.

And the TGI (SNB-78 CNS)?
Its TGI is 33.7 µM.

And the TGI (M19-MEL melanoma)?
Its TGI is 23.1 µM.

What about the TGI (DU-145 prostate) of the same compound?
Its TGI is 15.6 µM.

What about the TGI (KM12 colon) of the same compound?
Its TGI is 11.4 µM.

What about the TGI (HOP-92 NSCLC) of the same compound?
The TGI was 14.4 µM.

And the TGI (OVCAR-3 ovarian)?
Its TGI is 18.6 µM.

And the TGI (MDA-MB-435)?
The TGI was 2.94 µM.

And the TGI (XF 498 CNS)?
The TGI was 17.2 µM.

What about the TGI (OVCAR-4 ovarian) of the same compound?
The TGI was 14.1 µM.

For COc1cc(/C=C2/Oc3c(OC)cccc3C2=O)ccc1O, which TGI (NCI-H460 lung) is on record?
The TGI was > 100 µM.

And the TGI (DU-145 prostate)?
Its TGI is > 100 µM.

What about the TGI (KM12 colon) of the same compound?
Its TGI is > 100 µM.

And the TGI (HOP-92 NSCLC)?
The TGI was > 100 µM.

What about the TGI (OVCAR-3 ovarian) of the same compound?
Its TGI is > 100 µM.

And the TGI (MDA-MB-435)?
Its TGI is > 100 µM.

And the TGI (OVCAR-4 ovarian)?
Its TGI is > 100 µM.

How did the TGI (NCI-H460 lung) turn out when C/C(=N\NC(=S)N1CCOCC1)c1nc2ncccc2[nH]1 was run?
The TGI was > 100 µM.

And the TGI (DU-145 prostate)?
The TGI was > 100 µM.

What about the TGI (KM12 colon) of the same compound?
The TGI was > 100 µM.

And the TGI (HOP-92 NSCLC)?
The TGI was 68 µM.

What about the TGI (OVCAR-3 ovarian) of the same compound?
The TGI was > 100 µM.

What about the TGI (MDA-MB-435) of the same compound?
Its TGI is > 100 µM.

What about the TGI (OVCAR-4 ovarian) of the same compound?
Its TGI is > 100 µM.

How did the TGI (NCI-H460 lung) turn out when CCOC(=O)c1csc(NC(=O)C(C)N2CCOCC2)n1 (stereo not drawn) was run?
Its TGI is > 100 µM.

And the TGI (DU-145 prostate)?
The TGI was > 100 µM.

And the TGI (KM12 colon)?
The TGI was > 100 µM.

And the TGI (HOP-92 NSCLC)?
The TGI was > 100 µM.

What about the TGI (OVCAR-3 ovarian) of the same compound?
Its TGI is > 100 µM.

What about the TGI (MDA-MB-435) of the same compound?
Its TGI is > 100 µM.

What about the TGI (OVCAR-4 ovarian) of the same compound?
Its TGI is > 100 µM.

CCN(CC)CCNc1ccc([N+](=O)[O-])c2sc3cc(Cl)ccc3c(=O)c12 was tested. Which GI50 (DU-145 prostate) did it give?
The GI50 was 7.68 µM.

What about the TGI (DU-145 prostate) of the same compound?
Its TGI is 25.1 µM.

And the GI50 (KM12 colon)?
The GI50 was 6.77 µM.

What about the TGI (KM12 colon) of the same compound?
The TGI was 53.6 µM.

And the GI50 (HOP-92 NSCLC)?
Its GI50 is 2.15 µM.

And the TGI (HOP-92 NSCLC)?
Its TGI is 30.3 µM.

What about the GI50 (OVCAR-3 ovarian) of the same compound?
The GI50 was 4.62 µM.

And the TGI (OVCAR-3 ovarian)?
The TGI was 32.3 µM.

And the GI50 (MDA-MB-435)?
The GI50 was 2.83 µM.

What about the TGI (MDA-MB-435) of the same compound?
The TGI was > 100 µM.

What does the source list for c1cncc([O][Ge]([O]c2cccnc2)([O]c2cccnc2)[O]c2cccnc2)c1?
GI50 (NCI-H460 lung): > 100 µM; TGI (NCI-H460 lung): > 100 µM; GI50 (SNB-78 CNS): > 100 µM; TGI (SNB-78 CNS): > 100 µM; GI50 (M19-MEL melanoma): > 100 µM; TGI (M19-MEL melanoma): > 100 µM; GI50 (KM12 colon): > 100 µM; TGI (KM12 colon): > 100 µM; GI50 (OVCAR-3 ovarian): > 100 µM; TGI (OVCAR-3 ovarian): > 100 µM; GI50 (XF 498 CNS): > 100 µM; TGI (XF 498 CNS): > 100 µM; GI50 (OVCAR-4 ovarian): > 100 µM; TGI (OVCAR-4 ovarian): > 100 µM

Which results are given for CC1(Cl)CC(C)(/C=C/Cl)C(Cl)CC1Cl (stereo not drawn)?
TGI (NCI-H460 lung): 28.7 µM; TGI (SNB-78 CNS): 46.8 µM; TGI (M19-MEL melanoma): 59.1 µM; TGI (KM12 colon): 31.3 µM; TGI (HOP-92 NSCLC): 16.8 µM; TGI (OVCAR-3 ovarian): 28 µM; TGI (XF 498 CNS): 27.4 µM; TGI (OVCAR-4 ovarian): 37.1 µM

Cc1ccc(NC(=O)C(=O)Cc2cccc[n+]2[O-])cc1C was tested. Which TGI (NCI-H460 lung) did it give?
The TGI was > 100 µM.

What about the TGI (SNB-78 CNS) of the same compound?
Its TGI is > 100 µM.

What about the TGI (M19-MEL melanoma) of the same compound?
Its TGI is > 100 µM.

What about the TGI (KM12 colon) of the same compound?
The TGI was > 100 µM.

What about the TGI (OVCAR-3 ovarian) of the same compound?
Its TGI is > 100 µM.

What about the TGI (XF 498 CNS) of the same compound?
Its TGI is > 100 µM.

And the TGI (OVCAR-4 ovarian)?
Its TGI is > 100 µM.

NC(Cc1ccccc1CP(=O)(O)O)C(=O)O (stereo not drawn) was tested. Which TGI (NCI-H460 lung) did it give?
The TGI was > 100 µM.

What about the TGI (DU-145 prostate) of the same compound?
Its TGI is > 100 µM.

And the TGI (KM12 colon)?
The TGI was > 100 µM.

And the TGI (HOP-92 NSCLC)?
Its TGI is > 100 µM.

What about the TGI (OVCAR-3 ovarian) of the same compound?
Its TGI is > 100 µM.

And the TGI (MDA-MB-435)?
Its TGI is > 100 µM.

What about the TGI (OVCAR-4 ovarian) of the same compound?
The TGI was > 100 µM.

Which results are given for COC(=O)C(NC(=O)c1ccccc1)C(c1c(O)cc(O)cc1O)P(=O)(OC)OC (stereo not drawn)?
TGI (NCI-H460 lung): > 100 µM; TGI (M19-MEL melanoma): > 100 µM; TGI (KM12 colon): > 100 µM; TGI (HOP-92 NSCLC): > 100 µM; TGI (XF 498 CNS): > 100 µM; TGI (OVCAR-4 ovarian): > 100 µM

Which results are given for Cc1cc(Nc2ccc(Cl)cc2)nc(NCCCNc2ccnc3cc(Cl)ccc23)n1?
GI50 (DU-145 prostate): 1.84 µM; TGI (DU-145 prostate): 3.35 µM; GI50 (HOP-92 NSCLC): 1.01 µM; TGI (HOP-92 NSCLC): 2.53 µM

For CC(C)=CCC/C(C)=C/C=C/C(C)=C/C1C[C@@]2(C(O)O1)[C@H](CCCO)/C(=C(/C)C=O)CC[C@]2(C)O (stereo partly drawn), which TGI (NCI-H460 lung) is on record?
The TGI was 25.5 µM.

And the TGI (SNB-78 CNS)?
The TGI was 42 µM.

What about the TGI (M19-MEL melanoma) of the same compound?
The TGI was 32.4 µM.

What about the TGI (XF 498 CNS) of the same compound?
The TGI was 32.7 µM.

Which TGI (NCI-H460 lung) does the source give for C(=C\c1c2oc(-c3ccccc3)cc(-c3ccccc3)c-2c2ccccc12)/C=C1\c2ccccc2-c2c(-c3ccccc3)cc(-c3ccccc3)[o+]c21 here?
The TGI was > 100 µM.

What about the TGI (SNB-78 CNS) of the same compound?
The TGI was > 100 µM.

What about the TGI (M19-MEL melanoma) of the same compound?
Its TGI is > 100 µM.

And the TGI (HOP-92 NSCLC)?
Its TGI is > 100 µM.

And the TGI (OVCAR-3 ovarian)?
The TGI was > 100 µM.

And the TGI (XF 498 CNS)?
Its TGI is > 100 µM.

And the TGI (OVCAR-4 ovarian)?
Its TGI is > 100 µM.

Reference: PubChem BioAssay (NCI)
